Measured values published in US20110207722A1, “TREATMENT OF ANXIETY DISORDERS” (N[…]/S, priority 2008, published 2011).

Test system: Mice
Assay: Marble burying test
Format: in vivo, mouse
Settings: Compound I 0.05 mg/kg orally 60 min before testing; diazepam 0.03-0.3 mg/kg i.p. 30 min before testing; 30 min test session; n=8
Method: FIGS. 1 and 2 show the effect of the compound exo-7-(8-H-8-aza-bicyclo[3.2.1]oct-3-yloxy)-chromen-2-one (Compound I or Cp I) and diazepam, respectively, in the mouse marble burying test. Compound I (0.05-0.2 mg/kg) was administered orally 60 min before testing. Diazepam (0.1-1 mg/kg) was injected via the intraperitoneal (i.p.) route 30 min before testing. *P<0.05, ***P<0.001 vs. vehicle-treated group (Student's t-test, n=8).
Compound I (0.05 mg/kg) was administered orally 60 min before testing. Diazepam (0.03-0.3 mg/kg) was injected via the intraperitoneal (i.p.) route 30 min before testing. Paroxetine (10 mg/kg, i.p., −30 min) served as a positive control. *P<0.05, **P<0.01 vs. vehicle-treated group (Student's t-test, n=8).
Mice were placed for 30 min in novel cages (one mouse per cage, 20×30 cm) in which there were 20 glass marbles (15 mm in diameter) situated in four rows of five placed on top of 5 cm of sawdust. […]

SMILES: O=c1ccc2ccc(O[C@@H]3C[C@H]4CC[C@@H](C3)N4)cc2o1 [Compound I, exo-7-(8-H-8-aza-bicyclo[3.2.1]oct-3-yloxy)-chromen-2-one]
- effect on the activity of diazepam in the mouse marble burying test (number of glass marbles buried): augments the activity of diazepam
